Experimental findings from ChEMBL document CHEMBL1124720, “4'-[(4-Piperidyl)carbonyl]methanesulfonanilides as potent, selective, bioavailable class III antiarrhythmic agents” (J Med Chem, 1990) are described below.

Data set [1] is filed under the species Cavia porcellus. Kind of data set: Maximum percent increase in 90% repolarization at a concentration of 10 uM in Guinea pig right ventricular papillary muscles. The class given is functional, Muscle tissue.
The species named for data set [2] is Cavia porcellus. Put plainly: Concentration (1-10 uM) that causes 10% prolongation in the action potential duration at 90% […] in Guinea pig right ventricular papillary muscles. The class given is functional, Muscle tissue.
For data set [3], the species on record is Cavia porcellus. Kind of data set: The maximum percent change in the maximum rate rise of the action Potential in Guinea pig right ventricular papillary muscles, at compound concentration 1-10 uM; NS=Not significant. It is filed as functional. The settings on record: Muscle tissue.
For data set [4], the system named is Canis familiaris. Put plainly: Percent change in Effective refractory period after intravenous administration of 0.03 mg/kg in Anesthetized Dogs. The class given is functional, Canis lupus familiaris.
In data set [5] the test system is Canis familiaris. Kind of data set: Percent change in Effective refractory period after intravenous administration of 0.003 mg/kg in Anesthetized Dogs. The class given is functional, Canis lupus familiaris.
The test system of data set [6] is Canis familiaris. Put plainly: Percent change in Effective refractory period after intravenous administration of 0.01 mg/kg in Anesthetized Dogs. It is filed as functional, Canis lupus familiaris.
Data set [7] deals with Canis familiaris. Put plainly: Percent change in Heart rate after intravenous administration of 0.003 mg/kg in Anesthetized Dogs. The class given is functional, Canis lupus familiaris.
The species entered for data set [8] is Cavia porcellus. Kind of data set: Concentration (0.1-10 uM) that causes 10% prolongation in the action potential duration at 90% […] in Guinea pig right ventricular papillary muscles. It is filed as functional, Muscle tissue.
For data set [9], the system named is Canis familiaris. Put plainly: Percent change in Mean Blood pressure after intravenous administration of 0.03 mg/kg in Anesthetized Dogs. It is filed as functional, Canis lupus familiaris.
In data set [10] the test system is Canis familiaris. Put plainly: Percent change in Mean Blood pressure after intravenous administration of 0.01 mg/kg in Anesthetized Dogs. The class given is functional, Canis lupus familiaris.
The test system of data set [11] is Canis familiaris. Put plainly: Percent change in Heart rate after intravenous administration of 0.01 mg/kg in Anesthetized Dogs. The class given is functional, Canis lupus familiaris.
The subject of data set [12] is Canis familiaris. Put plainly: Percent change in Heart rate after intravenous administration of 0.03 mg/kg in Anesthetized Dogs. It is filed as functional, Canis lupus familiaris.
Data set [13] is filed under the species Cavia porcellus. Put plainly: Concentration (0.1-100 uM) that causes 10% prolongation in the action potential duration at 90% […] in Guinea pig right ventricular papillary muscles. It is filed as functional, Muscle tissue.
For data set [14], the system named is Canis familiaris. Kind of data set: Percent change in QTc interval after intravenous administration of 0.1 mg/kg in Anesthetized Dogs. The class given is functional, Canis lupus familiaris.
Data set [15] relates to Canis familiaris. Kind of data set: Percent change in Effective refractory period after intravenous administration of 0.1 mg/kg in Anesthetized Dogs. The class given is functional, Canis lupus familiaris.
The species named for data set [16] is Cavia porcellus. Kind of data set: The maximum percent change in the maximum rate rise of the action Potential in Guinea pig right ventricular papillary muscles at concentration 0.1-100 uM; NS=Not significant. The class given is functional. The conditions noted are these: Muscle tissue.
Data set [17] deals with Canis familiaris. Put plainly: Percent change in Mean Blood pressure after intravenous administration of 0.1 mg/kg in Anesthetized Dogs. The class given is functional, Canis lupus familiaris.
In data set [18] the test system is Canis familiaris. Kind of data set: Percent change in QTc interval after intravenous administration of 0.03 mg/kg in Anesthetized Dogs. The class given is functional, Canis lupus familiaris.
Data set [19] is filed under the species Cavia porcellus. Kind of data set: Maximum percent increase in 90% repolarization at a concentration of 100 uM in Guinea pig right ventricular papillary muscles. It is filed as functional, Muscle tissue.
Data set [20] deals with Canis familiaris. Put plainly: Percent change in QTc interval after intravenous administration of 0.01 mg/kg in Anesthetized Dogs. The class given is functional, Canis lupus familiaris.
For data set [21], the system named is Canis familiaris. Put plainly: Percent change in Heart rate after intravenous administration of 0.1 mg/kg in Anesthetized Dogs. The class given is functional, Canis lupus familiaris.
Data set [22] can be described thus: Half life of beta-elimination phase in plasma after oral administration of 10-50 mg/kg in conscious dogs; Range is 2.2-2.9. The class given is ADME, organism-based, Canis lupus familiaris. The settings on record: dog.
Data set [23] has as its system Canis familiaris. Kind of data set: Percent change in rate of left ventricular pressure after intravenous administration of 0.1 mg/kg in Anesthetized Dogs. The class given is functional, Canis lupus familiaris, Heart left ventricle.
In data set [24] the test system is Canis familiaris. Put plainly: Percent change in Effective refractory period after intravenous administration of 0.01 mg/kg in Anesthetized Dogs.
The subject of data set [25] is Canis familiaris. Kind of data set: Percent change in rate of left ventricular pressure after intravenous administration of 0.01 mg/kg in Anesthetized Dogs. It is filed as functional, Canis lupus familiaris, Heart left ventricle.
The subject of data set [26] is Canis familiaris. Put plainly: Percent change in rate of left ventricular pressure after intravenous administration of 0.03 mg/kg in Anesthetized Dogs. The class given is functional, Canis lupus familiaris, Heart left ventricle.
Data set [27] deals with Canis familiaris. Kind of data set: Percent change in Heart rate after intravenous administration of 0.3 mg/kg in Anesthetized Dogs. It is filed as functional, Canis lupus familiaris.
In data set [28] the test system is Canis familiaris. Put plainly: Percent change in Mean Blood pressure after intravenous administration of 0.3 mg/kg in Anesthetized Dogs. The class given is functional, Canis lupus familiaris.
Data set [29] deals with Canis familiaris. Kind of data set: Percent change in Mean Blood pressure after intravenous administration of 3 mg/kg in Anesthetized Dogs. It is filed as functional, Canis lupus familiaris.
Data set [30] concerns Canis familiaris. Put plainly: Percent change in Heart rate after intravenous administration of 3 mg/kg in Anesthetized Dogs. It is filed as functional, Canis lupus familiaris.
The test system of data set [31] is Canis familiaris. Put plainly: Percent change in Effective refractory period after intravenous administration of 1 mg/kg in Anesthetized Dogs. The class given is functional, Canis lupus familiaris.
Data set [32] relates to Canis familiaris. Kind of data set: Percent change in Heart rate after intravenous administration of 1 mg/kg in Anesthetized Dogs. The class given is functional, Canis lupus familiaris.
The test system of data set [33] is Canis familiaris. Kind of data set: Percent change in Effective refractory period after intravenous administration of 0.3 mg/kg in Anesthetized Dogs. The class given is functional, Canis lupus familiaris.
The species named for data set [34] is Cavia porcellus. Put plainly: The maximum percent change in the maximum rate rise of the action Potential in Guinea pig right ventricular papillary muscles at concentration 1-100 uM; NS=Not significant. The conditions noted are these: Muscle tissue. The class given is functional.
Data set [35] has as its system Canis familiaris. Put plainly: Percent change in Effective refractory period after intravenous administration of 3 mg/kg in Anesthetized Dogs. The class given is functional, Canis lupus familiaris.
In data set [36] the test system is Canis familiaris. Kind of data set: Percent change in rate of left ventricular pressure after intravenous administration of 0.3 mg/kg in Anesthetized Dogs. The class given is functional, Canis lupus familiaris, Heart left ventricle.
Data set [37] concerns Canis familiaris. Put plainly: Percent change in Mean Blood pressure after intravenous administration of 1 mg/kg in Anesthetized Dogs. The class given is functional, Canis lupus familiaris.
Data set [38] has as its system Canis familiaris. Put plainly: Percent change in rate of left ventricular pressure after intravenous administration of 3 mg/kg in Anesthetized Dogs. It is filed as functional, Canis lupus familiaris, Heart left ventricle.
The subject of data set [39] is Canis familiaris. Put plainly: Percent change in QTc interval after intravenous administration of 0.3 mg/kg in Anesthetized Dogs. It is filed as functional, Canis lupus familiaris.
Data set [40] relates to Canis familiaris. Kind of data set: Percent change in QTc interval after intravenous administration of 3 mg/kg in Anesthetized Dogs. It is filed as functional, Canis lupus familiaris.
The species entered for data set [41] is Cavia porcellus. Put plainly: Concentration (1-100 uM) that causes 10% prolongation in the action potential duration at 90% […] in Guinea pig right ventricular papillary muscles. It is filed as functional, Muscle tissue.
The subject of data set [42] is Canis familiaris. Put plainly: Percent change in QTc interval after intravenous administration of 1 mg/kg in Anesthetized Dogs. The class given is functional, Canis lupus familiaris.
In data set [43] the test system is Canis familiaris. Put plainly: Percent change in rate of left ventricular pressure after intravenous administration of 1 mg/kg in Anesthetized Dogs. The class given is functional, Canis lupus familiaris, Heart left ventricle.
Data set [44] in a line: Half life of beta-elimination phase in plasma after oral administration of 10-50 mg/kg in conscious dogs; Range is 1.4-2.1. The class given is ADME, organism-based, Canis lupus familiaris. The conditions noted are these: dog.
The test system of data set [45] is Canis familiaris. Kind of data set: Percent change in Heart rate after intravenous administration of 0.01 mg/kg in Anesthetized Dogs.

Structures are written as SMILES. The source made the active and inactive calls.

Turning to `CCCCCCC[N+](CC)(CC)CCCCc1ccc(Cl)cc1` [CLOFILIUM], in data set [1], the “Max APD90 (delta)” value is 13%. The C10APD90 in data set [2] was 1 µM. Moreover, in [3], the Vmax result was “inactive”.
For `Cc1cccc(CCN2CCC(C(=O)c3ccc(NS(C)(=O)=O)cc3)CC2)n1.Cl.Cl`, the “ERP (delta)” value is recorded as 24% in data set [4], 6% in [5] and 15% in data set [6]. Also, the “HR(delta)” value is on record as -8% in data set [7], -20% in data set [11] and -30% in data set [12]. For the same compound, in data set [8], the C10APD90 is 0.13 µM. Moreover, the results for the “mBP(delta)” value in data set [9] and in data set [10] were -6% and -4%, respectively.
One may read the half-life as the time needed for the level to fall by half in the phase considered. A higher half-life goes with slow loss. Consider `CS(=O)(=O)Nc1ccc(C(=O)C2CCN(CCCc3ccncc3)CC2)cc1.Cl.Cl`, for which the C10APD90 in [13] came to 0.19 µM. Besides, the entries for the “ERP (delta)” value in data set [4], in data set [15] and in [24] were 15%, 19% and 11%, respectively. Besides, the QTc delta in data set [14] is recorded as 21%; in data set [18], 15%; in [20], 7%. Besides, the Vmax entry in data set [16] was “inactive”. Also, the “mBP(delta)” value in data set [17] is on record as -9%; in data set [9], -5%; in [10], 2%. Further, the “Max APD90 (delta)” value in [19] turned out to be 33%. The “HR(delta)” value is -28% in [21], -6% in [11] and -20% in data set [12]. In data set [22], this compound showed a half-life of 2.2 h. Also, the figures for the “LV dP/dTmax(delta)” value in data set [23], in [25] and in [26] were 13%, 7% and 13%, respectively.
Consider `CC(C)NCC(O)c1ccc(NS(C)(=O)=O)cc1` (stereo not drawn) [SOTALOL], for which the “HR(delta)” value in data set [27] is on record as -6%; in data set [30] it was -30%; in data set [32], -19%. Besides, the results for the “mBP(delta)” value in data set [28], in data set [29] and in data set [37] were 0%, -13% and -7%, respectively. Besides, the “ERP (delta)” value was 14% in data set [31], 5% in data set [33] and 26% in data set [35]. Moreover, in [34], the Vmax entry is “inactive”. The “LV dP/dTmax(delta)” value in [36] was -1%; in data set [38], 5%; in [43], -4%. In addition, in data set [19], the “Max APD90 (delta)” value worked out at 21%. For the same compound, the QTc delta in data set [39] worked out at 4%; in [40], 23%; in data set [42], 11%. This compound also registered a C10APD90 in [41] of 16.3 µM.
For the compound `CS(=O)(=O)Nc1ccc(C(=O)C2CCN(CCc3cccnc3)CC2)cc1.Cl.Cl`, the results for the “ERP (delta)” value in [4], in data set [15] and in data set [6] were 10%, 19% and 6%, respectively. Besides, in data set [44], the half-life was 1.4 h. Further, the QTc delta stood at 25% in data set [14], 13% in data set [18] and 5% in [20]. For the same compound, the “HR(delta)” value in data set [45] is reported as -3%; in [21] it was -17%; in [12] it was -8%. Also, the Vmax result in data set [34] is “inactive”. The “mBP(delta)” value in [17] was -8%; in data set [9], -2%; in data set [10] it was -2%. Also, the “Max APD90 (delta)” value in data set [19] was 20%. Moreover, the entries for the “LV dP/dTmax(delta)” value in data set [23], in data set [25] and in data set [26] were 26%, 8% and 22%, respectively. The compound further showed a C10APD90 in data set [41] of 1.51 µM.
